Format in all cases: cell-based, mouse
For assay [1], the system named is STAT3. Nature of the assay: STAT3 activation assay 1 (pSTAT3-TA-Luc luciferase reporter). To be noted: D3ES cells, agent 0.4 to 40 μg/mL or ESGRO 10 to 10,000 unit/mL, 6 to 24 hours, FIG. 5. The method, then: For the D3ES cells prepared by the method described in (3) preparation of a mouse ES cell of Example 1, 1×10^5 cells in 500 μL ES medium were seeded in a well of a 24-well cell culture dish (Falcon Corp. made, Cat No. 3047, USA) coated previously with a 0.1% aqueous gelatin solution, followed by culturing at 37° C. in 5% CO2 incubator for 12 hours to 24 hours. Next, by using LipofectAMINE 2000 (Invitrogen Corp. made, USA) by a protocol attached to the product, 0.9 μg per 1 well of pSTAT3-TA-Luc or pTA-Luc vector (Clontech Corp. made, USA) was transfected into the ES cells. In addition, 0.1 μg of an internal control, pRL-TK vector (Promega Corp. made, USA) was transfected at the same time for each well. Following culturing at 37° C. in 5% CO2 incubator for 4 hours, the medium was sucked, and the cells were washed twice with PBS and, then, a 500 μL-ES assay medium was added to each well. […] Next, by using PicaGene Dual SeaPansy (Toyo Ink made, Japan) by the attached protocol, a luminescence signal generated by a luciferase reporter enzyme of each cell was measured.
Background: A reporter such as luciferase makes a cellular process visible.

Assay [2] deals with STAT3. The assay can be described thus: STAT3 activation assay 2 (pSTAT3-TA-Luc luciferase reporter). The conditions noted are these: D3ES cells, agent 0.4 to 40 μg/mL or ESGRO 10 to 10,000 unit/mL, 6 to 24 hours, FIG. 12. The method, then: For the D3ES cells prepared by the method described in (3) preparation of the ES cell of Example 1, 1×10^5 cells were seeded on a 24-well cell culture dish (Falcon, Cat. No. 3047, USA) coated previously with a 0.1% aqueous gelatin solution to make the ES cell medium in 500 μL per 1 well followed by culturing at 37° C. in 5% CO2 incubator for 12 hours to 24 hours. Next, by using LipofectAMINE 2000 (Invitrogen Corp. made, USA) by a protocol attached to the product, 0.9 μg/well of pSTAT3-TA-Luc or pTA-Luc vector (Clontech Corp. made, USA) was transfected into the ES cells. On the other hand, 0.1 μg of the internal control, pRL-TK vector (Promega Corp. made, USA) was transfected at the same time for each well. Following culturing at 37° C. in 5% CO2 incubator for 4 hours, the medium was sucked and washed twice with PBS and, then, the 500 μL-ES assay medium was added to each well. […] Next, by using PicaGene Dual SeaPansy (Toyo Ink, Japan) by the attached protocol, the luminescence signal generated by the luciferase reporter enzyme of each cell was measured.

Assay [3] has as its system SSEA-1 antigen. The assay can be described thus: Evaluation of the expression level of SSEA-1 antigen 1 (flow cytometry). The conditions noted are these: D3ES cells, 7 days, FIG. 8. The procedure: For the D3ES cells prepared by the method described in (3) preparation of a mouse ES cell of Example 1, 8×10^4 cells were seeded in a 10 cm-diameter cell culture dish coated previously with a 0.1% aqueous gelatin solution to make 10 mL of the ES cell assay medium. 1 mL of the differentiation inhibiting agent A to F, which were dissolved in dimethylsulfoxide (DMSO) or culture medium or their mixture to make 40 μg/mL per each dish, or ESGRO, which was adjusted to make 10^4 unit/mL, was added, and culturing was carried out at 37° C. in 5% […] incubator for 7 days. To the culture medium was added DMSO to make the final concentration 0.1% or lower.
The cells cultured in (1) ES cell differentiation inhibition assay 2 as described above were washed twice with PBS, and were removed from the dish with a cell scraper. 300 μL of Hanks balanced salt solution (HBSS, Invitrogen Corp. made) containing 2% FBS was added to give 6×10^5 cells. 30 μL of MX-SSEA-1 antibody (Kyowa Medex Corp. made) diluted 50 folds with HBSS was added, and left stand for 40 minutes on ice. […] The sample used for flow cytometry was measured after passed through a nylon mesh with a 100 μm pore size to eliminate a coagulated mass. […]
In general terms: A flow cytometer gives signals particle by particle.

Each structure is given as a SMILES string.

The source of these data is US8883504B2, “Cell differentiation suppressing agent, method of culturing cells using the same, culture solution, and cultured cell line” (Asahi Kasei Kabushiki Kaisha, priority 2003, dated 2014).

In the case of `CC(=O)c1ccc(/N=N/C(C(N)=O)=C2/NC(C)(C)Cc3ccccc32)cc1` [compound B, 2-(4-acetyl-phenylazo)-2-(3,3-dimethyl-3,4-dihydro-2H-isoquinoline-1-ylidene)-acetamide], the “expression of the luciferase reporter enzyme by pSTAT3-TA-Luc” value in assay [1] and in assay [2] was “did not induce the expression of the reporter enzyme” throughout.

Consider `CC1(C)Cc2ccccc2C(=C(N=Nc2cccc([N+](=O)[O-])c2)C(N)=O)N1` [E, 2-(3,3-dimethyl-3,4-dihydro-2H-isoquinoline-1-ylidene)-2-(3-nitro-phenylazo)-acetamide], for which the “average fluorescence intensity per 1 cell (SSEA-1 antigen expression intensity per 1 cell) in comparison with medium without agent” value in assay [3] is on record as “significantly high”.

As to `CC1(C)Cc2ccccc2C(=C(N=Nc2cccc(Cl)c2)C(N)=O)N1` [C, 2-(3-chloro-phenylazo)-2-(3,3-dimethyl-3,4-dihydro-2H-isoquinoline-1-ylidene)-acetamide], in assay [3], the “average fluorescence intensity per 1 cell (SSEA-1 antigen expression intensity per 1 cell) in comparison with medium without agent” value is “significantly high”.
